Test results as given in paper PMC4412257, “2′,6′-Dimethylphenylalanine: A Useful Aromatic Amino Acid Surrogate for Tyr or Phe Residue in Opioid Peptides” (International Journal of Medicinal Chemistry, 2012).
Where two headings read alike, the source gives them in different places.

Assays:
[1] = target: μ-opioid receptor; details: cited from earlier work; for Ki: versus [3H]DAMGO, read-out: Receptor binding affinity, Ki ± S.E., μ
[2] = target: MVD (δ): mouse vas deferens, δ-receptors; details: cited from earlier work; for GPI/MVD: ratio of IC50 values; for Ke of CTAP against the peptide, MVD: antagonist CTAP (μ); for Ke of CTAP against the peptide, MVD / Ke of N,N(Me)2Dmt-Tic-OH against the peptide, MVD: MVD assay; for Ke of N,N(Me)2Dmt-Tic-OH against the peptide, MVD: antagonist N,N(Me)2Dmt-Tic-OH (δ)
[3] = target: δ-opioid receptor; details: cited from earlier work; for Ki: versus [3H]DT, read-out: Receptor binding affinity, Ki ± S.E., δ; for μ/δ: ratio of Ki values
[4] = tested on: δ-opioid receptor; assay: δ-opioid receptor binding, brain homogenate, versus [3H]DT; parameters: species or system rat; details: ratio of Ki values
Experimental: The receptor-binding affinities of synthetic analogs were determined using rat brain, as previously reported [45].

[5] = tested on: GPI (μ): guinea pig ileum, predominantly μ-receptors; details: cited from earlier work; for MVD/GPI: ratio of IC50 values; for Ke of CTAP against the peptide, GPI: antagonist CTAP (μ), GPI assay
[6] = tested on: GPI (μ): guinea pig ileum, predominantly μ-receptors; assay: isolated guinea pig ileum (GPI) assay; format: cell-based; details: ratio of IC50 values
Experimental: (§1) The receptor-binding affinities of synthetic analogs were determined using rat brain, as previously reported. […] The GPI tissue contains predominantly μ-receptors, while MVD tissue contains δ-receptors. […] In contrast, 11 was devoid of activity in both assays, as expected from the binding data. […] This analog turned out to be a potent μ-antagonist and a weak δ-antagonist. […] The results of 13 are in line with observations that Dmt-D-Phe-NH2 and its C-terminally extended analog are μ-receptor antagonists.

[7] = tested on: μ-opioid receptor; assay: μ-opioid receptor binding, brain homogenate, versus [3H]DAMGO; parameters: species or system rat; details: ratio of Ki values
Experimental: as §1
Two methyl groups on Dmp^4 may interfere with the receptor interaction due to a reduction in conformational flexibility and/or enhanced lipophilicity. To further examine the usefulness of Dmp-containing DYN peptides as κ-opioid receptor ligands, the in vitro bioactivity of DYN peptides was determined using the GPI assay (Table 5).

[8] = tested on: MVD (δ): mouse vas deferens, δ-receptors; assay: isolated mouse vas deferens (MVD) assay; format: cell-based; details: ratio of IC50 values
Experimental: as §1

Substance	Ki ([1]; Table 1, rat brain) [nM]	IC50 ([2]; Table 1) [nM]	Ki ([3]; Table 1, rat brain) [nM]	IC50 ([5]; Table 1) [nM]	Ki ([1]; Table 6) [nM]	IC50 ([2]; Table 6) [nM]	Ki ([3]; Table 6) [nM]	IC50 ([5]; Table 6) [nM]	other results
[Dmt^1, D-Dmp^4]ENK [compound 13]	5.61 ± 0.59	> 10000	40.9 ± 11.5	> 10000					pA2 (δ antagonism) ([2]; against DT as a δ agonist in the MVD assay): 5.57; μ/δ ([4]; Table 1): 0.14; pA2 (μ antagonism) ([5]; against EM2 as a μ agonist in the GPI assay): 6.90
[D-Dmp^4]EM2 [compound 17]	106 ± 20	2270 ± 603	1760 ± 834	587 ± 119					MVD/GPI ([6]; Table 1): 3.86; δ/μ ([7]; Table 1): 17
[D-Dmp^3]DM [compound 19]	4.43 ± 1.85	358 ± 45	3300 ± 702	44.4 ± 6.1					MVD/GPI ([6]; Table 1): 8.1; δ/μ ([7]; Table 1): 745
[Dmt^1]ENK [reference compound]									Ki ([1]; Table 1, footnote c): 0.0068 ± 0.003 nM; Ki ([1]; Table 6, footnote c): 0.0068 ± 0.003 nM; IC50 ([2]; Table 1, footnote c): 0.17 ± 0.02 nM; GPI/MVD ([2]; Table 1, footnote c): 3.24; IC50 ([2]; Table 6, footnote c): 0.17 ± 0.02 nM; GPI/MVD ([2]; Table 6, footnote c): 3.24; μ/δ ([3]; Table 1, footnote c): 0.22; Ki ([3]; Table 1, footnote c): 0.031 ± 0.011 nM; μ/δ ([3]; Table 6, footnote c): 0.22; Ki ([3]; Table 6, footnote c): 0.031 ± 0.011 nM; IC50 ([5]; Table 1, footnote c): 0.55 ± 0.17 nM; IC50 ([5]; Table 6, footnote c): 0.55 ± 0.17 nM
[D-Dmp^l]DT [compound 35]					> 2180	662 ± 147	1390 ± 495	> 10000	
[Dmt^1, Dmp^4]ENK [compound 12]	0.03 ± 0.011	1.45 ± 0.26		2 ± 0.51					GPI/MVD ([8]; Table 1): 1.38; μ/δ ([4]; Table 1): 0.19
[D-Dmp^1]EM2 [compound 39]					40.4 ± 2.6	2330 ± 943	9710 ± 3820	1390 ± 221	δ/μ ([7]; Table 6): 241
[Dmp^4]EM2 [compound 16]	13.2 ± 1.9	320 ± 55	7620 ± 2570	196 ± 40					MVD/GPI ([6]; Table 1): 1.63; δ/μ ([7]; Table 1): 578
[Phe^1]EM2 [compound 40]					54.1 ± 23.4	5200	18900	1070 ± 309	MVD/GPI ([6]; Table 6): 4.85; δ/μ ([7]; Table 6): 348
[Dmp^4]ENK [compound 10]	1.25 ± 0.29	624 ± 103	17.7 ± 4.2	808 ± 101					GPI/MVD ([8]; Table 1): 1.29; μ/δ ([4]; Table 1): 0.07
[Dmp^3]EM2 [compound 14]	0.0304 ± 0.0208		1060 ± 336	0.378 ± 0.104					MVD/GPI ([6]; Table 1): 3.68; δ/μ ([7]; Table 1): 34967
[Dmp^1]ENK [compound 32]					5.94 ± 1.45	66.6 ± 12.7	1.86 ± 0.61	710 ± 69	GPI/MVD ([8]; Table 6): 10.66; μ/δ ([4]; Table 6): 3.19
Tyr-Gly-Gly-Phe-Leu [ENK, reference compound]		22.2 ± 4.3		103 ± 30		22.2 ± 4.3		103 ± 30	
[Dmp^1]DT [compound 34]					156 ± 33	0.272 ± 0.054	0.329 ± 0.077	4040 ± 1120	μ/δ ([4]; Table 6): 475
[D-Dmp^4]ENK [compound 11]	2500 ± 169	> 10000	8920 ± 4100	> 10000					μ/δ ([4]; Table 1): 0.28
[D-Dmp^3]EM2 [compound 15]	2.4 ± 0.56	187 ± 30	4170 ± 954	30.4 ± 2.8					MVD/GPI ([6]; Table 1): 6.15; δ/μ ([7]; Table 1): 1737
[D-Dmp^3]YRFB [compound 23]	0.0618 ± 0.0109	305 ± 53	> 2820	19.8 ± 1.9					MVD/GPI ([6]; Table 1): 15.4; δ/μ ([7]; Table 1): >45679
[D-Dmp^3]DT [compound 21]	1960 ± 177	145 ± 15	111 ± 17	8210 ± 872					GPI/MVD ([8]; Table 1): 56; μ/δ ([4]; Table 1): 18
[Dmp^3]DT [compound 20]	1100 ± 111	0.022 ± 0.003	0.00105 ± 0.00043	6700 ± 992					
[D-Dmp^1]YRFB [compound 41]					7.62 ± 1.75	1470 ± 283	> 2820	320 ± 30	MVD/GPI ([6]; Table 6): 4.6; δ/μ ([7]; Table 6): >370
Tyr-D-Ala-Phe-Gly-Tyr-Pro-Ser-NH2 [DM, reference compound]	0.092 ± 0.024	34.4 ± 4.8	192 ± 51	3.74 ± 0.57					MVD/GPI ([6]; Table 1): 9.2; δ/μ ([7]; Table 1): 2087
[Dmt^1]YRFB [reference compound]									δ/μ ([1]; Table 6, footnote c, ratio of Ki values): 551; Ki ([1]; Table 6, footnote c): 0.00205 ± 0.00069 nM; IC50 ([2]; Table 6, footnote c): 0.398 ± 0.085 nM; Ke of CTAP against the peptide, MVD [2]: 7.89 nM; Ke of N,N(Me)2Dmt-Tic-OH against the peptide, MVD [2]: 192 nM; Ki ([3]; Table 6, footnote c): 1.13 ± 0.13 nM; IC50 ([5]; Table 6, footnote c): 0.034 ± 0.065 nM; MVD/GPI ([5]; Table 6, footnote c): 11.7; Ke of CTAP against the peptide, GPI [5]: 85.5 nM
[Dmp^3]DM [compound 18]		4.62 ± 0.82	45.7 ± 11.8	1.21 ± 0.23					MVD/GPI ([6]; Table 1): 3.8; δ/μ ([7]; Table 1): 84630
[Phe^1]DT [compound 37]					> 2180	10.4 ± 1.5	2.68 ± 1.22	> 10000	
[Dmt^1]EM2 [reference compound]									Ki ([1]; Table 6, footnote d): 0.15 ± 0.04 nM; IC50 ([2]; Table 6, footnote d): 1.87 ± 0.61 nM; IC50 ([5]; Table 6, footnote d): 0.07 ± 0.02 nM; MVD/GPI ([5]; Table 6, footnote d): 26.7
[Phe^1]YRFB [compound 42]					7.17 ± 1.03	7140 ± 950	> 2820	633 ± 89	MVD/GPI ([6]; Table 6): 11.2; δ/μ ([7]; Table 6): >393
[Dmp^1]EM2 [compound 38]					2.48 ± 1.46	661 ± 316	6760 ± 590	76.9 ± 20.7	MVD/GPI ([6]; Table 6): 8.61; δ/μ ([7]; Table 6): 2727
[Dmp^1,3]YRFB [compound 25]					0.0216 ± 0.0062		1690 ± 458	2.76 ± 0.56	MVD/GPI ([6]; Table 6): 18.2; Ke of CTAP against the peptide, MVD [2]: 10.2 nM; Ke of N,N(Me)2Dmt-Tic-OH against the peptide, MVD [2]: >1000 nM; Ke of CTAP against the peptide, GPI [5]: 21.3 nM; δ/μ ([7]; Table 6): 78148
[Phe^1]ENK [compound 33]					169 ± 12	> 10000	73.7 ± 19.5	> 10000	μ/δ ([4]; Table 6): 2.29
